According to patent US20260315464A1, “COMPOSITIONS, METHODS, AND SYSTEMS FOR MODULATING SPLICING OF MSH3” (REVIR THERAPEUTICS, INC., priority 2023, published 2026):

System: MSH3
Experiment: QPCR assay for levels of MSH3 upon compound treatment in HEK293T or AD293 cells (fold-change of MSH3 transcript, EC50 of MSH3 downregulation; total MSH3 exons 13/14, exons 20/21; Table 8)
Type: cell-based
Conditions: for mrna remaining at 1 µM / mrna remaining at 10 µM: Homo sapiens, fold-change of the MSH3 transcript, normalized to GAPDH; for mrna remaining at 1 µM: 1 μM compound; for mrna remaining at 10 µM: 10 μM compound; for EC50: EC50 of MSH3 downregulation, XtalPi
Outline: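 HEK293T or AD293 cells were treated at 1 μM and […]; RNA-to-cDNA qPCR used TaqMan assays for total MSH3 (exons 13/14, exons 20/21) and poison-exon junctions exon 13/PE14A and exon 20/PE21A. Transcript levels were normalized to GAPDH.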

EC50 [nM] | Compound | mrna remaining at 1 µM [%] | mrna remaining at 10 µM [%]
– | Cc1nn(C)nc1-c1cnc2c(c1)C(=O)N(c1ccc(S[C@H]3C[C@]4(C)CC[C@](C)(C3)N4)nn1)C2 [Compound 611, 3-(2,5-dimethyl-2H-1,2,3-triazol-4-yl)-6-(6-(((1R,3s,5S)-1,5-dimethyl-8-azabicyclo[3.2.1]octan-3-yl)thio)pyridazin-3-yl)-6,7-dihydro-5H-pyrrolo[3,4-b]pyridin-5-one] | 90 | 79
– | CN(c1ccc(N2Cc3ncc(-c4nnn(C)n4)cc3C2=O)nn1)[C@H]1C[C@]2(C)CC[C@](C)(C1)N2 [Compound 612, 6-(6-(((1R,3s,5S)-1,5-dimethyl-8-azabicyclo[3.2.1]octan-3-yl)(methyl)amino)pyridazin-3-yl)-3-(2-methyl-2H-tetrazol-5-yl)-6,7-dihydro-5H-pyrrolo[3,4-b]pyridin-5-one] | 109 | 15
– | Cc1nn(C)nc1-c1cnc2c(c1)C(=O)N(c1ccc(N3C[C@@H](C)NC[C@@H]3C)nn1)C2 [Compound 613, 3-(2,5-dimethyl-2H-1,2,3-triazol-4-yl)-6-(6-((2S,5R)-2,5-dimethylpiperazin-1-yl)pyridazin-3-yl)-6,7-dihydro-5H-pyrrolo[3,4-b]pyridin-5-one] | 130 | 91
– | C[C@@H]1CN(c2ccc(N3Cc4ncc(-c5nn(C)nc5Cl)cc4C3=O)nn2)[C@@H](C)CN1 [Compound 614, 3-(5-chloro-2-methyl-2H-1,2,3-triazol-4-yl)-6-(6-((2S,5R)-2,5-dimethylpiperazin-1-yl)pyridazin-3-yl)-6,7-dihydro-5H-pyrrolo[3,4-b]pyridin-5-one] | 107 | 79
– | Cc1nn(C)nc1-c1cnc2c(c1)C(=O)N(c1ccc(N3CCN4CCC[C@H]4C3)nn1)C2 [Compound 615, (S)-3-(2,5-dimethyl-2H-1,2,3-triazol-4-yl)-6-(6-(hexahydropyrrolo[1,2-a]pyrazin-2(1H)-yl)pyridazin-3-yl)-6,7-dihydro-5H-pyrrolo[3,4-b]pyridin-5-one] | 81 | 53
– | Cc1nn(C)nc1-c1cnc2c(c1)C(=O)N(c1ccc(N3CCC[C@@H](NC(C)(C)C)C3)nn1)C2 [Compound 616, (R)-6-(6-(3-(tert-butylamino)piperidin-1-yl)pyridazin-3-yl)-3-(2,5-dimethyl-2H-1,2,3-triazol-4-yl)-6,7-dihydro-5H-pyrrolo[3,4-b]pyridin-5-one] | 100 | 67
– | Cn1nc(Cl)c(-c2cnc3c(c2)C(=O)N(c2ccc(N4CCC[C@@H](NC(C)(C)C)C4)nn2)C3)n1 [Compound 617, (R)-6-(6-(3-(tert-butylamino)piperidin-1-yl)pyridazin-3-yl)-3-(5-chloro-2-methyl-2H-1,2,3-triazol-4-yl)-6,7-dihydro-5H-pyrrolo[3,4-b]pyridin-5-one] | 93 | 70
– | CN(C)C1CCN(c2ccc(N3Cc4ncc(-c5nn(C)nc5Cl)cc4C3=O)nn2)CC1 [Compound 618, 3-(5-chloro-2-methyl-2H-1,2,3-triazol-4-yl)-6-(6-(4-(dimethylamino)piperidin-1-yl)pyridazin-3-yl)-6,7-dihydro-5H-pyrrolo[3,4-b]pyridin-5-one] | 83 | 68
– | Cn1nc(Cl)c(-c2cnc3c(c2)C(=O)N(c2ccc(OC4CC(C)(C)NC5(CCC5)C4)nn2)C3)n1 (stereo not shown) [Compound 619, 3-(5-chloro-2-methyl-2H-1,2,3-triazol-4-yl)-6-(6-((6,6-dimethyl-5-azaspiro[3.5]nonan-8-yl)oxy)pyridazin-3-yl)-6,7-dihydro-5H-pyrrolo[3,4-b]pyridin-5-one] | 80 | 10
– | Cn1nc(Cl)c(-c2cnc3c(c2)C(=O)N(c2ccc(N4CCN5CCC[C@H]5C4)nn2)C3)n1 [Compound 620, (S)-3-(5-chloro-2-methyl-2H-1,2,3-triazol-4-yl)-6-(6-(hexahydropyrrolo[1,2-a]pyrazin-2(1H)-yl)pyridazin-3-yl)-6,7-dihydro-5H-pyrrolo[3,4-b]pyridin-5-one] | 93 | 55
229 | CN(c1ccc(N2Cc3ncc(-c4nn(C)nc4Cl)cc3C2=O)nn1)C1CC(C)(C)NC2(CCC2)C1 (stereo not shown) [Compound 621, 3-(5-chloro-2-methyl-2H-1,2,3-triazol-4-yl)-6-(6-((6,6-dimethyl-5-azaspiro[3.5]nonan-8-yl)(methyl)amino)pyridazin-3-yl)-6,7-dihydro-5H-pyrrolo[3,4-b]pyridin-5-one] | – | –
– | Cc1nn(C)cc1-c1cnc2c(n1)C(=O)N(c1ccc(O[C@H]3C[C@]4(C)CC[C@](C)(C3)N4)nn1)C2 [Compound 622, 3-(1,3-dimethyl-1H-pyrazol-4-yl)-6-(6-(((1R,3s,5S)-1,5-dimethyl-8-azabicyclo[3.2.1]octan-3-yl)oxy)pyridazin-3-yl)-6,7-dihydro-5H-pyrrolo[3,4-b]pyrazin-5-one] | 76 | 30
2990 | Cc1nn(C)nc1-c1cnc2c(n1)C(=O)N(c1ccc(O[C@H]3C[C@]4(C)CC[C@](C)(C3)N4)nn1)C2 [Compound 623, 3-(2,5-dimethyl-2H-1,2,3-triazol-4-yl)-6-(6-(((1R,3s,5S)-1,5-dimethyl-8-azabicyclo[3.2.1]octan-3-yl)oxy)pyridazin-3-yl)-6,7-dihydro-5H-pyrrolo[3,4-b]pyrazin-5-one] | 60 | 13
– | Cc1nn(C)nc1-c1cnc2c(n1)C(=O)N(c1ccc(OC3CC(C)(C)NC(C)(C)C3)nn1)C2 [Compound 624, 3-(2,5-dimethyl-2H-1,2,3-triazol-4-yl)-6-(6-((2,2,6,6-tetramethylpiperidin-4-yl)oxy)pyridazin-3-yl)-6,7-dihydro-5H-pyrrolo[3,4-b]pyrazin-5-one] | 60 | 12
– | CN(c1ccc(N2Cc3ncc(-c4cnn(CC(C)(C)O)c4)nc3C2=O)nn1)[C@H]1C[C@]2(C)CC[C@](C)(C1)N2 [Compound 625, 6-(6-(((1R,3s,5S)-1,5-dimethyl-8-azabicyclo[3.2.1]octan-3-yl)(methyl)amino)pyridazin-3-yl)-3-(1-(2-hydroxy-2-methylpropyl)-1H-pyrazol-4-yl)-6,7-dihydro-5H-pyrrolo[3,4-b]pyrazin-5-one] | 81 | 108
– | CN(c1ccc(N2Cc3ncc(-c4nn(C)nc4Cl)nc3C2=O)nn1)C1CC(C)(C)NC2(CCC2)C1 (stereo not shown) [Compound 626, 3-(5-chloro-2-methyl-2H-1,2,3-triazol-4-yl)-6-(6-((6,6-dimethyl-5-azaspiro[3.5]nonan-8-yl)(methyl)amino)pyridazin-3-yl)-6,7-dihydro-5H-pyrrolo[3,4-b]pyrazin-5-one] | 98 | 28
– | CN(c1ccc(N2Cc3ncc(-c4nn(C)nc4Cl)nc3C2=O)nn1)[C@H]1C[C@]2(C)CC[C@](C)(C1)N2 [Compound 627, 3-(5-chloro-2-methyl-2H-1,2,3-triazol-4-yl)-6-(6-(((1R,3s,5S)-1,5-dimethyl-8-azabicyclo[3.2.1]octan-3-yl)(methyl)amino)pyridazin-3-yl)-6,7-dihydro-5H-pyrrolo[3,4-b]pyrazin-5-one] | 37 | 11
